This passage reports cytotoxicity results from ChEMBL document CHEMBL3507680, “University of Dundee, Gates Library screen for HepG2 cell viability”.

Structures are written as SMILES.

This data set in a line: Human HepG2 cell viability assay in 384 well format. The class given is toxicity, cell-based. Further details: dose 125 nL, time 70.5 hour; concentration not given beside the values. The settings on record: HepG2 cells, read-out: Inhibition.
`COC(=O)c1ccoc1CN(C1CC1)C1CCS(=O)(=O)C1` (stereo not drawn): the cytotoxicity at 70.5 h was -0.821%.

Turning to `CCS(=O)(=O)N1C[C@H]2CN(Cc3cccnc3)C(=O)[C@H]2C1`, the cytotoxicity at 70.5 h turned out to be 16.7%.

For the compound `CCOC(=O)c1ccc(S(=O)(=O)NCc2cccnc2N(C)C)cc1`, the cytotoxicity at 70.5 h turned out to be 34.2%.

As for `Nc1nccnc1CC1CCCN(Cc2ccnc3ccccc23)C1` (stereo not drawn), the cytotoxicity at 70.5 h was found to be 27.7%.

On to `CN(Cc1ccsc1)C(=O)c1ccc(F)c(NS(C)(=O)=O)c1`, for which the cytotoxicity at 70.5 h is -3.77%.

For `CCc1ccc(C(=O)N2CCCn3nnc(Cn4cccn4)c3C2)cc1`, the cytotoxicity at 70.5 h was -5.86%.

As for `O=C(NC1CC1)N1C[C@@H]2CCN(C(=O)c3cscn3)[C@@H]2C1`, the cytotoxicity at 70.5 h is 10.3%.

For the compound `COc1cc(C)c(C(C)NC(=O)c2cccnc2N(C)C)cc1OC` (stereo not drawn), the cytotoxicity at 70.5 h was -6.36%.

As for `COCC(=O)NC[C@H]1C[C@@H]2CCN1C[C@@H]2CN1CCc2ccccc21`, the cytotoxicity at 70.5 h is -3.32%.

In the case of `Nc1nc2c(c(NC(=O)Nc3ccccc3)n1)CCCC2`, the cytotoxicity at 70.5 h was determined as 16.9%.

In the case of `Cc1cc(CN(C)Cc2ncc(-c3ccccc3)o2)no1`, the cytotoxicity at 70.5 h was -0.145%.

On to `COCC1CN(Cc2ccoc2)Cc2cn(CC3CCOCC3)nc21` (stereo not drawn), for which the cytotoxicity at 70.5 h is -9.14%.

Regarding `CC(CNC(=O)c1c[nH]nn1)Oc1ccccc1Br` (stereo not drawn), the cytotoxicity at 70.5 h was -10.7%.

Turning to `NCCc1n[nH]c(=O)n1-c1cccc(Cl)c1Cl`, the cytotoxicity at 70.5 h was -3.82%.

For the compound `CCOCCc1nc(-c2cnn3c(C)cc(C)nc23)no1`, the cytotoxicity at 70.5 h was -107%.

Consider `CCn1cc(S(=O)(=O)Nc2cccnc2-n2cccn2)nc1C`, for which the cytotoxicity at 70.5 h was -2.93%.

For `CN1CCOC(C)(C(=O)N2CCN(C3CCCC3)CC2)C1` (stereo not drawn), the cytotoxicity at 70.5 h is -11.9%.

Regarding `O=c1c2ccccc2nc2n1C(CSc1cccc(C(F)(F)F)c1)CN2` (stereo not drawn), the cytotoxicity at 70.5 h was -2.38%.

For `O=C(NC[C@H]1CCCO1)c1ccc(S(=O)(=O)N2C[C@@H]3C[C@H]2CN3)cc1`, the cytotoxicity at 70.5 h is -1.62%.

For the compound `Cc1nc(CN2CC(Cc3ccccc3)CC2=O)no1` (stereo not drawn), the cytotoxicity at 70.5 h was -17.4%.

Consider `O=C(c1ccncc1)N1CCN2C[C@H](Oc3cccc(F)c3)C[C@H]2C1`, for which the cytotoxicity at 70.5 h is -0.421%.

For `CCCc1cncnc1N1CCC2(CCC(=O)N(CCCO)C2)CC1`, the cytotoxicity at 70.5 h is -10.1%.

In the case of `CCC1=N[C@@]2(CC[C@@H]3CN(CC(C)C)C[C@@H]32)C(=O)N1`, the cytotoxicity at 70.5 h was -2.78%.

Regarding `Cc1noc(C(C)C)c1C(=O)NCCN1CCOCC1`, the cytotoxicity at 70.5 h is -17.9%.

As to `CCN(CC)Cc1cnc2n1CCN(C1CCOC1)CC2` (stereo not drawn), the cytotoxicity at 70.5 h is -1.04%.

Consider `CCc1ccc(S(=O)(=O)Nc2ccncc2)s1`, for which the cytotoxicity at 70.5 h is -5.81%.

For the compound `Cc1nc(N(C)C)nc(C)c1NS(=O)(=O)c1ccc(F)cc1F`, the cytotoxicity at 70.5 h is -2.45%.

Consider `CC(C)c1ccc(/C=C/CC(=O)NC2CCN(C(N)=O)C2)cc1` (stereo not drawn), for which the cytotoxicity at 70.5 h was 9%.

On to `Cc1nc(C2CCN(C[C@H](C)CO)CC2)cc(N2CCOCC2)n1`, for which the cytotoxicity at 70.5 h is -0.547%.

Regarding `COc1ccc(C2CC(=O)Nc3nc(N4CCOCC4)sc32)cc1` (stereo not drawn), the cytotoxicity at 70.5 h is -6.38%.

With `O=C1CCCCN1CCCNCc1cnc(C2CCC2)s1`, the cytotoxicity at 70.5 h stood at 0.195%.

As for `CCOc1ccccc1C(CC(=O)Nc1ccccn1)NC(C)=O` (stereo not drawn), the cytotoxicity at 70.5 h is -5.35%.

For the compound `Cc1nc(C2CCCN(C(=O)c3cccc4c3OCCO4)C2)no1` (stereo not drawn), the cytotoxicity at 70.5 h was -1.54%.

Turning to `O=C(NC[C@H]1OC[C@@H]2CCN(c3ncccn3)C[C@@H]21)c1ccnnc1`, the cytotoxicity at 70.5 h was found to be 1.23%.

Turning to `CC(C)N(Cc1ccccn1)S(=O)(=O)N1CCCC1c1ccco1` (stereo not drawn), the cytotoxicity at 70.5 h was 3.04%.

With `O=C(c1cc[nH]n1)N1CCc2ncnc(N3CCSCC3)c2CC1`, the cytotoxicity at 70.5 h was 10.4%.

In the case of `COc1ccc(Oc2cc(CN)ccn2)cc1`, the cytotoxicity at 70.5 h is 2.32%.

Consider `CC(=O)N(Cc1ncc(C)o1)C1CCN(Cc2ccc(F)c(F)c2)C1` (stereo not drawn), for which the cytotoxicity at 70.5 h was -4.3%.

In the case of `CN(C)[C@@H]1CN(C(=O)c2ccc(C#N)cc2)[C@@H]2CCCO[C@H]12`, the cytotoxicity at 70.5 h was 3.23%.

With `COCCN1CCC2(CCN(Cc3ccc(OC)cc3)CC2)C1=O`, the cytotoxicity at 70.5 h is -11.1%.

As for `Cc1nc(CN2C(=O)COC3(CCN(C)CC3)C2C)cs1` (stereo not drawn), the cytotoxicity at 70.5 h was found to be 4.23%.

In the case of `CCC(CC)C(=O)N1CCC(c2nn(CCN)c3nccnc23)C1` (stereo not drawn), the cytotoxicity at 70.5 h was -4.84%.

For the compound `CS(=O)(=O)NCc1nnc2n1CCN(Cc1cccs1)C2`, the cytotoxicity at 70.5 h was -3.11%.

Turning to `CCN(CC)C(CNCc1ccc(OC)c(F)c1)c1ccco1` (stereo not drawn), the cytotoxicity at 70.5 h was 54.9%.

With `CC(=O)CN1CC2(CCNCC2)COc2ccccc2S1(=O)=O`, the cytotoxicity at 70.5 h was -12.2%.

`c1cnc(N2CCN(CCn3ccnc3-c3c[nH]cn3)CC2)nc1`: the cytotoxicity at 70.5 h is -6.35%.

Turning to `CCOCCCn1c(NC(=O)c2cnc(C)cn2)nc2ccccc21`, the cytotoxicity at 70.5 h was -5.61%.

For the compound `CCc1nc(C)c(C(=O)N(C)Cc2cnc3ccccn23)o1`, the cytotoxicity at 70.5 h was -7.82%.

In the case of `Cc1cccc(NC(=O)N2CCOCC(CN(C)C)C2)c1C` (stereo not drawn), the cytotoxicity at 70.5 h was -6.8%.

Consider `Cc1cccc(CN2C[C@@H]3CN(C(=O)c4ccco4)C[C@@H]3C2=O)n1`, for which the cytotoxicity at 70.5 h was -13.1%.

`CCS(=O)(=O)NCC(=O)N1CC2(CCCC2)c2c(F)cccc21`: the cytotoxicity at 70.5 h is -1.86%.

For `CC(NS(C)(=O)=O)C(=O)N1CCCN(Cc2cscn2)CC1` (stereo not drawn), the cytotoxicity at 70.5 h is -1.86%.

In the case of `c1ccc(-n2ncc(CNCC3CCCN3c3cccnn3)n2)cc1` (stereo not drawn), the cytotoxicity at 70.5 h came to 5.2%.

Turning to `CC(=O)N1CC[C@@H]2O[C@@H](COCC(=O)N3CCCC3)CC[C@@H]21`, the cytotoxicity at 70.5 h came to 23.9%.

As to `NC[C@H]1CC[C@H](C(NC(=O)CC2CCCC2)c2ccccn2)CC1` (stereo partly drawn), the cytotoxicity at 70.5 h was -0.374%.

Consider `Cn1nc(CO)c2c1CCN(c1ncnc3c1CCNC3)C2`, for which the cytotoxicity at 70.5 h is -6.14%.

For the compound `CN(Cc1cccc(F)c1)C(=O)c1ccncc1Cl`, the cytotoxicity at 70.5 h was -18.9%.

Regarding `CCC(=O)N(CCN(C)C)Cc1ccc(F)c(F)c1`, the cytotoxicity at 70.5 h was -13.7%.

On to `O=C(C1CCCc2[nH]ncc21)N1CCCCCC1` (stereo not drawn), for which the cytotoxicity at 70.5 h is -7.74%.

As to `CC(C)c1nccc(C2(c3ccccc3Cl)CCNCC2)n1`, the cytotoxicity at 70.5 h was found to be 10.5%.

`Cn1ncnc1CNc1ccccc1C(=O)NC(C)(C)C`: the cytotoxicity at 70.5 h was -100%.

In the case of `CN1CCN([C@@H]2CN(C(=O)c3ccsc3)[C@@H]3CCCO[C@H]23)CC1`, the cytotoxicity at 70.5 h is -2.84%.

For the compound `O=C(CC1CCC2(CC1)CCN(Cc1cccnc1)CC2)N1CC=CC1`, the cytotoxicity at 70.5 h was -8.62%.

`Cc1nn(CCC(=O)NC2CCCOC2)c(C)c1C` (stereo not drawn): the cytotoxicity at 70.5 h was -1.37%.

Consider `CC(C)c1nn(C)c(N(C)C)c1CNCc1cccnc1`, for which the cytotoxicity at 70.5 h was -1.06%.

Consider `c1ccc(Cc2noc(-c3ccc(NCC4CCCCO4)nc3)n2)cc1` (stereo not drawn), for which the cytotoxicity at 70.5 h was determined as 26.1%.

Consider `c1nc(C2CCCCO2)ncc1CN1CCOCC1` (stereo not drawn), for which the cytotoxicity at 70.5 h was -4.04%.

With `Cc1ccc(S(=O)(=O)NCc2cccc(C(=O)N3CCCC3)c2)cc1F`, the cytotoxicity at 70.5 h is -7.96%.

With `Cc1cnn(CC2CCCN2Cc2nc3ccccc3nc2C)c1` (stereo not drawn), the cytotoxicity at 70.5 h is -7.74%.

Take `c1ncn(CC2CCCN(Cc3csc(-c4ccsc4)n3)C2)n1` (stereo not drawn): the cytotoxicity at 70.5 h is 2.18%.

As to `O=C(Nc1ccc(F)cc1)N(CCC(F)(F)F)C[C@H](O)CO`, the cytotoxicity at 70.5 h is -0.146%.

In the case of `COCCCNC(=O)CCn1nc(C)c2ccccc21`, the cytotoxicity at 70.5 h is -2.16%.

Turning to `Cc1nc2[nH]cnc(NCCCN3CCOCC3)c-2n1`, the cytotoxicity at 70.5 h is -6.34%.

In the case of `O=C(NC1CCC(C(=O)N2CCSCC2)CC1)N1CCC1` (stereo not drawn), the cytotoxicity at 70.5 h was -6.98%.

Regarding `Cc1ccc(CN(C)C(=O)CN2CC(n3cccn3)C2)o1`, the cytotoxicity at 70.5 h stood at 23.5%.

For the compound `COCC(c1cccc(C(F)(F)F)c1)N(C)C(=O)c1cnccn1` (stereo not drawn), the cytotoxicity at 70.5 h was -9.11%.

Regarding `c1cc(-c2nn3c(CN4CCOCC4)nnc3s2)ccn1`, the cytotoxicity at 70.5 h is -8.04%.

As for `CN(CC(F)(F)F)C(=O)CN1CCC(c2cc3ccccc3[nH]2)CC1`, the cytotoxicity at 70.5 h was -25%.

Consider `COc1ccc(C(=O)N2C[C@@H](O)[C@H](NCc3ncccc3C)C2)cc1`, for which the cytotoxicity at 70.5 h was -8.03%.

`C[C@@H]1C[C@@H]2CCN(C(=O)c3cnccn3)C[C@H]2O1`: the cytotoxicity at 70.5 h is -0.399%.

As for `COc1cc(NC(=O)c2ccc(C)c(F)c2)c(C(=O)N(C)C)cc1OC`, the cytotoxicity at 70.5 h was -12.5%.

On to `Cc1nc(Cn2c3c(ccc2=O)CC(NC(C)C)CC3)cs1` (stereo not drawn), for which the cytotoxicity at 70.5 h was -9.3%.

For `O=S(=O)(Cc1ccc(F)c(Cl)c1)NC(CO)c1ccco1` (stereo not drawn), the cytotoxicity at 70.5 h is -11%.

On to `COCc1nc(-c2ccc(S(=O)(=O)N3CCCC3)cc2)cs1`, for which the cytotoxicity at 70.5 h was -3.85%.

With `O=C(Cc1cccs1)NCC1Cn2nnc(-c3ccoc3)c2CO1` (stereo not drawn), the cytotoxicity at 70.5 h was -5.7%.

With `CC1=N[C@@]2(CC[C@@H]3CN(CC4CC4)C[C@@H]32)C(=O)N1CC1CC1`, the cytotoxicity at 70.5 h was -13.6%.

Take `CN(C)CCN1C(=O)CCC12CCN(Cc1cccs1)CC2`: the cytotoxicity at 70.5 h was -11.7%.

As for `c1ccc(N2CC3(CCN(Cc4cccnc4)C3)C2)nc1`, the cytotoxicity at 70.5 h was -7.68%.

`O=C(CC1CCCC1)N1CCN2C[C@@H](CO)[C@H](c3ccccc3)[C@H]2C1`: the cytotoxicity at 70.5 h is 24.2%.

For the compound `CCn1c(Cn2cncn2)nnc1C1CCN(C(=O)CCSC)CC1`, the cytotoxicity at 70.5 h is -4.61%.

Consider `N[C@H]1CN(C(=O)c2ccc3[nH]c(CO)nc3c2)C[C@@H]1c1ccccc1`, for which the cytotoxicity at 70.5 h is -19.4%.

As for `O=C(c1cc(-n2cnnn2)ccc1Cl)N1CCOCC1`, the cytotoxicity at 70.5 h was -21.4%.

As for `Cc1ccccc1NC(=O)Nc1c[nH]c(=O)[nH]c1=O`, the cytotoxicity at 70.5 h is -9.84%.

`Cn1nc(CN2CCCC2)c2c1CN(C(=O)c1cccnc1)CC2`: the cytotoxicity at 70.5 h was -2.33%.

As for `CN(Cc1cnn(C)c1)C(=O)Cc1ccc2c(c1)OCCO2`, the cytotoxicity at 70.5 h was -62.7%.

With `CC(C)(C)c1ncc(C(=O)NCCNC(=O)c2ccco2)s1`, the cytotoxicity at 70.5 h was -6.05%.

As to `CCOC(=O)C1(O)CCN(C(=O)Nc2cccc(CC)c2)CC1`, the cytotoxicity at 70.5 h was -0.303%.

Take `COc1ccc(CCCC(=O)N2CCCC(n3cncn3)C2)cc1` (stereo not drawn): the cytotoxicity at 70.5 h was -2.82%.
